From patent US8507526B2, “4- [2- (4-methylphenylsulfanyl) phenyl] piperidine for the treatment of irritable bowel syndrome (IBS)” (H. Lundbeck A/S, priority 2007, dated 2013)

Tested on: chronic constriction nerve injury, peripheral mononeuropathy
Experiment: Chronic constriction nerve injury model of neuropathic pain (Von Frey filaments, Hargreaves Plantar Device)
Type: in vivo
Conditions: rats
Description: A peripheral mononeuropathy was induced in the right hind limb of rats following a chronic constriction nerve injury, and the development of mechanical allodynia and thermal hyperalgesia was monitored using established behavioural tests (Von Frey filaments and the Hargreaves Plantar Device, respectively).

SMILES: Cc1ccc(Sc2ccccc2C2CCNCC2)cc1 [Compound I, 4-[2-(4-methylphenylsulfanyl)phenyl]piperidine]
- paw withdrawal threshold, Von Frey filaments (mechanical allodynia) (subcutaneous 1.9, 4.8 and 7.9 mg/kg in 10% hydroxypropyl-betacyclodextrin, right hind paw): did not increase the paw withdrawal threshold
- paw withdrawal latency, thermal hyperalgesia (Hargreaves Plantar Device) (subcutaneous 4.8 and 7.9 mg/kg): significant increases in paw withdrawal latency
